24 compounds from US6858638B2, “Substituted indazoles, compositions containing them, method of production and use” (Aventis Pharma S.A., priority 2002, dated 2005) can be followed below.

Series [1] concerns the target T1, human KDR enzyme (Homo sapiens, UniProt P35968).
T1 construct: The cytoplasmic domain of the human KDR enzyme; GST; made in house; host or cells: SF21 insect cells (baculovirus)
Description: KDR substrate (PLCγ) phosphorylation, scintillation assay. In kind it is biochemical. To be noted: 10 μM; read-out: KDR % inhib at 10 μM. An outline of the steps: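 GST-fused human KDR cytoplasmic domain from SF21 cells (about 60% pure, 100 ng) phosphorylated 2 μg of GST-PLCγ SH2-SH3 fragment. The trigger solution held γ33P-ATP with 2 μM cold ATP, in MOPS buffer pH 7.2 with Mg2+, Mn2+, vanadate and NaF. Reactions ran 1 h at 37 °C, were stopped with EDTA and counted by scintillation; results are % inhibition versus the no-compound control.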

T1 sequence (P35968 786-1356 limits assumed): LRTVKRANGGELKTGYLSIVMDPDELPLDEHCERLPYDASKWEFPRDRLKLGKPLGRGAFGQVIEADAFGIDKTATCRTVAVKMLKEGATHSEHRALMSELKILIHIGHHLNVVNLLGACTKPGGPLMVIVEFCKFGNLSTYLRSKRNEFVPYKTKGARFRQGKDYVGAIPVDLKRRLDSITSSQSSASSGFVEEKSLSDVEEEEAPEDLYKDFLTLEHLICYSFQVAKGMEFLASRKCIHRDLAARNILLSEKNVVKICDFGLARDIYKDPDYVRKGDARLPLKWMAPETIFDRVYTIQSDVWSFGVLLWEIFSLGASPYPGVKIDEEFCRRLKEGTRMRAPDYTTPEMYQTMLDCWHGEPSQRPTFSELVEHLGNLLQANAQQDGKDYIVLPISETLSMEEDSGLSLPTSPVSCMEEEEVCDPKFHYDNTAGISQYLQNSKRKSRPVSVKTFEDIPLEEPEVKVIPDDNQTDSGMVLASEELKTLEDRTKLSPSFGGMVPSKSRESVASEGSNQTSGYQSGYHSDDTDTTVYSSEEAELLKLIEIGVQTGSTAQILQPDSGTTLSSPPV

`Nc1n[nH]c2ccc(NS(=O)(=O)c3cccc(F)c3)cc12` [Example 26, N-(3-Amino-1H-indazol-5-yl)-3-fluorobenzenesulfonamide]: the melting point was determined as 216 °C. Further, the inhibition at 10 µM in series [1] amounted to 24%.
`COc1ccc(-c2n[nH]c3ccc(NS(=O)(=O)c4ccccc4S(C)(=O)=O)cc23)cc1` [Example 32, N-[3-(4-Methoxyphenyl)-1H-indazol-5-yl]-2-methylsulfonylbenzenesulfonamide] returned a melting point of 244 °C. In series [1], the inhibition at 10 µM is 87%.
For `CS(=O)(=O)c1ccccc1S(=O)(=O)Nc1ccc2[nH]nc(-c3ccc(F)cc3)c2c1` [Example 33, N-[3-(4-Fluorophenyl)-1H-indazol-5-yl]-2-methylsulfonylbenzenesulfonamide], the melting point stood at 209 °C. In addition, in series [1], the inhibition at 10 µM is 68%.
In turn, `CS(=O)(=O)c1ccccc1S(=O)(=O)Nc1ccc2[nH]nc(NCc3ccccc3)c2c1` [Example 36, N-(3-Benzylamino-1H-indazol-5-yl)-2-methylsulfonylbenzenesulfonamide] yielded a melting point of 226 °C. Moreover, the inhibition at 10 µM in series [1] is 23%.
For `CNc1n[nH]c2ccc(NS(=O)(=O)c3ccccc3S(C)(=O)=O)cc12` [Example 37, N-(3-Methylamino-1H-indazol-5-yl)-2-methylsulfonylbenzenesulfonamide] the same measures were 220 °C and 8%.
`CS(=O)(=O)c1ccccc1S(=O)(=O)Nc1ccc2[nH]nc(N)c2c1` [Example 39, N-(3-Amino-1H-indazol-5-yl)-2-methylsulfonylbenzenesulfonamide] returned a melting point of 246 °C. In addition, the inhibition at 10 µM in series [1] came to 20%.
On the same counts, the results for `Nc1n[nH]c2ccc(NS(=O)(=O)c3c(F)cccc3F)cc12` [Example 40, N-(3-Amino-1H-indazol-5-yl)-2,6-difluorobenzenesulfonamide] are 241 °C and 22%.
Consider `Nc1n[nH]c2ccc(NS(=O)(=O)c3c(Cl)cccc3Cl)cc12` [Example 41, N-(3-Amino-1H-indazol-5-yl)-2,6-dichlorobenzenesulfonamide], for which the melting point turned out to be 250 °C. Also, the inhibition at 10 µM in series [1] is 36%.
`Nc1n[nH]c2ccc(NS(=O)(=O)c3cc(F)cc(F)c3)cc12` [Example 42, N-(3-Amino-1H-indazol-5-yl)-3,5-difluorobenzenesulfonamide] came in with a melting point of 232 °C. The inhibition at 10 µM in series [1] was determined as 25%.
On the same counts, the results for `CS(=O)(=O)c1ccccc1S(=O)(=O)Nc1ccc2[nH]nc(-c3ccoc3)c2c1` [Example 52, N-(3-Furan-3-yl-1H-indazol-5-yl)-2-methylsulfonylbenzenesulfonamide] are 249 °C and 49%.
As to `CS(=O)(=O)c1ccccc1S(=O)(=O)Nc1ccc2[nH]nc(-c3ccco3)c2c1` [Example 53, N-(3-Furan-2-yl-1H-indazol-5-yl)-2-methylsulfonylbenzenesulfonamide], the melting point is 248 °C. In addition, the inhibition at 10 µM in series [1] was 42%.
For `CS(=O)(=O)c1ccccc1S(=O)(=O)Nc1ccc2[nH]nc(-c3ccncc3)c2c1` [Example 54, 2-Methylsulfonyl-N-(3-pyridin-4-yl-1H-indazol-5-yl)benzenesulfonamide] the same measures were 265 °C and 76%.
For `COC(=O)c1cccc(-c2n[nH]c3ccc(NS(=O)(=O)c4ccccc4S(C)(=O)=O)cc23)c1` [Example 55, Methyl 3-[5-(2-methylsulfonylbenzenesulfonamino)-1H-indazol-3-yl]benzoate] the same measures were 202 °C and 51%.
Take `CS(=O)(=O)c1ccccc1S(=O)(=O)Nc1ccc2[nH]nc(-c3ccc(N)cc3)c2c1` [Example 70, N-[3-(4-Aminophenyl)-1H-indazol-5-yl]-2-methylsulfonylbenzenesulfonamide]: the melting point is 154 °C. The inhibition at 10 µM in series [1] was 71%.
For `CS(=O)(=O)c1ccccc1S(=O)(=O)Nc1ccc2[nH]nc(-c3cccc(C#N)c3)c2c1` [Example 71, N-[3-(3-Cyanophenyl)-1H-indazol-5-yl]-2-methylsulfonylbenzenesulfonamide] the same measures were 240 °C and 83%.
For `CS(=O)(=O)c1ccccc1S(=O)(=O)Nc1ccc2[nH]nc(/C=C/c3ccc(F)cc3)c2c1` [Example 74, N-{3-[(E)-2-(4-Fluorophenyl)vinyl]-1H-indazol-5-yl}-2-methylsulfonylbenzenesulfonamide] the same measures were 248 °C and 95%.
On the same counts, the results for `CS(=O)(=O)c1ccccc1S(=O)(=O)Nc1ccc2[nH]nc(/C=C/c3ccc(Cl)cc3)c2c1` [Example 76, N-{3-[(E)-2-(4-Chlorophenyl)vinyl]-1H-indazol-5-yl}-2-methylsulfonylbenzenesulfonamide] are 247 °C and 92%.
`COC(=O)/C=C/c1n[nH]c2ccc(NS(=O)(=O)c3ccccc3S(C)(=O)=O)cc12` [Example 79, Methyl (E)-3-[5(2-methylsulfonylbenzenesulfonylamino)-1H-indazol-3-yl]-acrylate] displayed a melting point of 253 °C. Also, in series [1], the inhibition at 10 µM was 50%.
For `O=S(=O)(Nc1ccc2[nH]nc(-c3cc4ccccc4[nH]3)c2c1)c1ccccc1OC(F)(F)F` [Example 84, N-[3-(1H-Indol-2-yl)-1H-indazol-5-yl]-2-trifluoromethoxybenzenesulfonamide] the same measures were 172 to 174 °C and 98%.
On the same counts, the results for `CS(=O)(=O)c1ccccc1S(=O)(=O)Nc1ccc2[nH]nc(Sc3ccccc3)c2c1` [Example 88, 2-Methylsulfonyl-N-(3-phenylsulfanyl-1H-indazol-5-yl)-benzenesulfonamide] are 195 °C and 25%.
On the same counts, the results for `CS(=O)(=O)c1ccccc1S(=O)(=O)Nc1ccc2[nH]nc(C#Cc3ccccc3)c2c1` [Example 89, 2-Methylsulfonyl-N-(3-phenylethynyl-1H-indazol-5-yl)-benzenesulfonamide] are 198 °C and 85%.
Turning to `Cc1cc2[nH]nc(-c3ccccc3)c2cc1NS(=O)(=O)c1ccccc1S(C)(=O)=O` [Example 92, 2-Methylsulfonyl-N-(6-methyl-3-phenyl-1H-indazol-5-yl)-benzenesulfonamide], the melting point worked out at 239 °C. In series [1], the inhibition at 10 µM was 66%.
`CS(=O)(=O)c1ccc(F)cc1S(=O)(=O)Nc1ccc2[nH]nc(-c3ccccc3)c2c1` [Example 93, 5-Fluoro-2-methylsulfonyl-N-(3-phenyl-1H-indazol-5-yl)-benzenesulfonamide] came in with a melting point of 224 °C. Besides, the inhibition at 10 µM in series [1] stood at 83%.
For `Nc1ccc(S(=O)(=O)Nc2ccc3[nH]nc(-c4ccccc4)c3c2)cc1` [Example 94, 4-Amino-N-(3-phenyl-1H-indazol-5-yl)benzenesulfonamide] the same measures were 249 °C and 88%.
